# Results published in paper PMC8179049 (Chemical Science, 2020).
# Where “and” joins values, the source holds several entries; their conditions need not be identical. Identical values can stand only once. Like-named read-outs stand apart in the source and are kept apart here.
# Tests used:
# [1] = target: T1, human AspH (His6-AspH315-758) (Homo sapiens, UniProt Q12797); test: SPE-MS AspH inhibition assay; assay type: biochemical; conditions: mean ± SD, n = 3
# T1 construct: N-Terminally His6-tagged human AspH315-758 (His6-AspH315-758) was produced in Escherichia coli BL21 (DE3); made in house; host or cells: Escherichia coli BL21 (DE3), pET-28a(+) vector
# T1 sequence (Q12797 315-758): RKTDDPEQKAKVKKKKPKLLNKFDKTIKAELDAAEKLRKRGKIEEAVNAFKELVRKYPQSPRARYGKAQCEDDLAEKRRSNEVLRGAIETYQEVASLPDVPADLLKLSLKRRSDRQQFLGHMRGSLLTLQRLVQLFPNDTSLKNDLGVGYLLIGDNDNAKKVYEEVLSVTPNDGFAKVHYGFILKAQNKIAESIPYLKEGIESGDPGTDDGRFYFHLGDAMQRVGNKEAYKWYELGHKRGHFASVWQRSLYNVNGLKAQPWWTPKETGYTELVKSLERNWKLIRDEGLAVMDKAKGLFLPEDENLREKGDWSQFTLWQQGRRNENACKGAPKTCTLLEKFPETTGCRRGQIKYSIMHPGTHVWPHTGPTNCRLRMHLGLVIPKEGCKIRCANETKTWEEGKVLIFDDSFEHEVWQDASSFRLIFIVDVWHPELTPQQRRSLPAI
# Experimental: 6. Recombinant AspH production and purification
# N-Terminally His6-tagged human AspH315-758 (His6-AspH315-758) was produced in Escherichia coli BL21 (DE3) cells using a pET-28a(+) vector and purified by Ni(II)-affinity chromatography (HisTrap HP column, GE Healthcare; 1 mL/min flow rate) and size-exclusion chromatography (HiLoad 26/60 Superdex 75 pg 300 mL column; 1 mL/min) using an ÄKTA pure machine (GE Healthcare) as previously reported.1,4 AspH was >95% pure by SDS-PAGE and MS analysis and had the anticipated mass (calculated for His6-AspH315-758: 54519 Da, found: 54519 Da).1 Purified AspH was stored in 50 mM HEPES buffer (pH 7.5, 150 mM NaCl) at a concentration of 125 μM at -78 °C; fresh aliquots were used for all AspH assays.
# 7. AspH substrate synthesis
# AspH substrates were designed based on the sequence of EGFD1 of human coagulation factor X (hFX amino acids 86-124), which is a reported cellular AspH substrate.2 All substrates were prepared with a C-terminal amide.
# The hFX-EGFD186-124-4Ser peptide (hFX amino acids 86-124; Supporting Figure S1c),1 used for crystallography experiments, was synthesized by solid phase peptide synthesis (SPPS) and purified by GL Biochem (Shanghai) Ltd (Shanghai, China). The thioether linked cyclic peptide hFX-CP101-119 (hFX amino acids 101-119; Supporting
# Figure S1d), which was used as substrate in AspH SPE-MS assays,4 was synthesized by an intramolecular thioetherification cyclization reaction from the corresponding linear peptide (D-Ala replacing Cys101hFX and Ser replacing Cys112hFX) which was obtained by microwave-assisted solid phase peptide synthesis using the Fmoc-protection strategy as described.4
# 8. AspH inhibition assays […]
# water; ammonium iron(II) sulfate hexahydrate, FAS, (NH 4)2Fe(SO4)2·6H2O: 400 mM in 20 mM HCl diluted to 1 mM in Milli-Q® Ultrapure water) were freshly prepared each day from commercially sourced solids (Sigma […]
# (Greiner) in an approximately three-fold and 11-point dilution series (100 μM top concentration) using an ECHO 550 acoustic dispenser (Labcyte). DMSO and 2,4 -PDCA were used as negative and positive controls , respectively .
# The final DMSO concentration was kept constant at 0.5%v/v throughout all experiments (using the DMSO backfill option of the acoustic dispenser). Each reaction was performed in technical duplicates in adjacent wells of the assay plates; additionally, assays were performed in three independent technical duplicates on different days using different DMSO inhibitor solutions. […]
# dispensed across the inhibitor-containing 384-well assay plates with a multidrop dispenser (ThermoFischer Scientific) at 20°C under an ambient atmosphere. The plates were subsequently centrifuged (1000 rpm, 30 s) and incubated for 15 minutes at 20°C. The Substrate Mixture (25 μL/well), containing 2.0 μM hFX-CP101-119, 200 μM […]
# Note: The multidrop dispenser ensured proper mixing of the Enzyme and the Substrate Mixtures which was essential for assay reproducibility. The plates were centrifuged (1000 rpm, 30 s) and af ter incubating for 7 minutes, […]
# centrifuged (1000 rpm, 60 s) and analysed by MS.
# The mass spectrometer parameters were:
# Data were exported into Microsoft
# The standard deviation (SD) of three
# Z’-factors were calculated
# 9. Determination of kinetic parameters […]
# in 50 mM HEPES buffer (pH 7.5).
# [2] = target: T2, human AspH (Homo sapiens, UniProt Q12797); test: SPE-MS AspH turnover assay in the absence of 2OG (2OG derivative as cosubstrate); conditions: 330 μM 2OG or 2OG derivative, 0.1 μM AspH, 2 μM hFX-CP101-119, 50 μM FAS, t = 15 min;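 also: percent conversion = hydroxylated cyclic peptide peak area relative to summed substrate plus product areas, taken from +2 charge state ion chromatograms by solid phase extraction MS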
# T2 sequence (Q12797 315-758): T1 sequence (Q12797 315-758)
# Experimental: AspH assays were performed as described in the ESI, ^† data are shown as the mean of three independent runs (n = 3; mean ± standard deviation, SD).
# AspH assays were performed as described in Section 9 of the Supporting Information using 0.1 μM AspH, 2 μM
# a positive control in the SPE-MS AspH turnover assays (Entry 1).
# dependent conversion of the AspH substrate hFX-CP101-119 (Supporting Figure S1d). %-Substrate conversion is
# AspH assays were performed as
# described in Section 9 of the Supporting Information using 0.1 μM AspH, 2 μM hFX-CP101-119, 50 μM FAS, 330
# AspH inhibition assays were incubated for 6 rather than 7 minutes before the enzyme reaction was
# stopped by the addition of 10%v/v aqueous formic acid.
# MS-analyses were performed using a RapidFire RF 365 high-throughput sampling robot (Agilent) attached to an
# iFunnel Agilent 6550 accurate mass quadrupole time-of-flight (Q-TOF) mass spectrometer operated in the positive
# ionization mode. Assay samples were aspirated under vacuum for 0.4 s and loaded onto a C4 solid phase extraction (SPE) cartridge. After loading, the C4 SPE cartridge was washed with 0.1%v/v aqueous formic acid to remove
# non-volatile buffer salts (5 s, 1.5 mL/min). The peptide was eluted from the SPE cartridge with 0.1%v/v aqueous
# formic acid in 85/15v/v acetonitrile/water into the mass spectrometer (5 s, 1.25 mL/min) and the SPE cartridge re-
# equilibrated with 0.1%v/v aqueous formic acid (1 s, 1.25 mL/min). The mass spectrometer parameters were:
# capillary voltage (4000 V), nozzle voltage (1000 V), fragmentor voltage (365 V), gas temperature (280°C), gas
# flow (13 L/min), sheath gas temperature (350°C), sheath gas flow (12 L/min). The m/z +2 charge states of the
# cyclic peptide (substrate) and the hydroxylated cyclic peptide (product) were used to extract ion chromatogram
# data, peak areas were integrated using RapidFire Integrator software (Agilent). Data were exported into Microsoft
# Excel and used to calculate the % conversion of the hydroxylation reaction using the equation: % conversion =
# 100 x (integral product cyclic peptide) / (integral substrate cyclic peptide + integral product cyclic peptide).
# Normalized dose-response curves (2,4-PDCA and DMSO controls) were obtained from the raw data by non-linear
# regression (GraphPad Prism 5) and used to determine IC50-values. The standard deviation (SD) of three
# independent IC50 determinations (n = 3) was calculated using GraphPad Prism 5. Z’-factors were calculated
# according to the cited literature using Microsoft Excel (Supporting Figure S3).14
# [3] = 50 nM His6-AspH315–758, 1.0 μM hFX-CP101–119, 3 μM 2OG, read-out: IC50 (inhibition of AspH)
# [4] = 50 nM His6-AspH315–758, 1.0 μM hFX-CP101–119, 3 μM 2OG
# [5] = IC50 at 200 μM 2OG (ESI Table S1), assay concentration of 200 μM 2OG
# [6] = IC50 at 400 μM 2OG (ESI Table S1), assay concentration of 400 μM 2OG
# [7] = IC50 at 600 μM 2OG (ESI Table S1), assay concentration of 600 μM (0.6 mM) 2OG
smiles,measurement,setting,value
CCCC(CC(=O)O)C(=O)C(=O)O (stereo not shown) [compound 18],IC50,[1]; [3],~5.7 µM and 5.7 µM
same,AspH-catalyzed substrate conversion (hydroxylation of hFX-CP101-119),[2],< 1%
O=C(O)C(=O)c1ccc(C(=O)O)c(F)c1 [compound 43],IC50 (inhibition of AspH),[1]; [4],Inactive
same,melting point,,> 260 °C (dec.)
same,AspH-catalyzed substrate conversion (hydroxylation of hFX-CP101-119),[2],~8%
"O=C(O)CNC(=O)C(=O)O [NOG, N-oxalylglycine, reference compound]",IC50,"[1]; 50 nM His6-AspH315-758, 1.0 μM hFX-CP101-119, read-out: IC50 (ESI Fig. S4)",0.99 ± 0.31 µM
same,IC50,[1]; [3],~1 µM
O=C(O)C(=O)c1ccc(C(=O)O)cc1Br [compound 44],IC50 (inhibition of AspH),[1]; [4],Inactive
same,melting point,,> 300 °C (dec.)
same,AspH-catalyzed substrate conversion (hydroxylation of hFX-CP101-119),[2],~20%
O=C(O)CC(Cc1ccc(F)cc1)C(=O)C(=O)O (stereo not shown) [compound 22],IC50,[1]; [3],2.6 ± 0.8 µM
same,melting point,,> 250 °C (dec.)
same,AspH-catalyzed substrate conversion (hydroxylation of hFX-CP101-119),[2],< 1%
O=C(O)CC(CCCc1ccccc1)C(=O)C(=O)O (stereo not shown) [compound 20],IC50,[1]; [3],~6.8 µM and 6.8 µM
same,melting point,,> 220 °C (dec.)
same,AspH-catalyzed substrate conversion (hydroxylation of hFX-CP101-119),[2],< 1%
CC(C)(C)CCC(CC(=O)C(=O)O)C(=O)O (stereo not shown) [compound 30],IC50,[1]; [3],0.7 ± 0.11 µM
same,AspH-catalyzed substrate conversion (hydroxylation of hFX-CP101-119),[2],< 1%
CC(C)CC(CC(=O)C(=O)O)C(=O)O (stereo not shown) [compound 29],IC50,[1]; [3],0.51 ± 0.12 µM
same,IC50,[1]; [5],10.8 ± 2.7 µM
same,IC50,[1]; [6],16.8 ± 2.5 µM
same,IC50,[1]; [7],26.9 ± 7 µM
same,AspH-catalyzed substrate conversion (hydroxylation of hFX-CP101-119),[2],< 1%
O=C(O)CC(Cc1ccc(OC(F)(F)F)cc1)C(=O)C(=O)O (stereo not shown) [compound 23],IC50,[1]; [3],6.3 ± 2.6 µM
same,melting point,,> 260 °C (dec.)
same,AspH-catalyzed substrate conversion (hydroxylation of hFX-CP101-119),[2],< 1%
O=C(O)C(=O)c1cscc1C(=O)O [compound 37],IC50 (inhibition of AspH),[1]; [4],did not inhibit
same,IC50 (inhibition of AspH),"[1]; 50 nM His6-AspH315–758, 1.0 μM hFX-CP101–119, 3 μM 2OG, listed as C00032",Inactive
same,AspH-catalyzed substrate conversion (hydroxylation of hFX-CP101-119),[2],< 1%
CCCC(CC(=O)C(=O)O)C(=O)O (stereo not shown) [compound 28],IC50,[1]; [3],0.47 ± 0.08 µM
same,AspH-catalyzed substrate conversion (hydroxylation of hFX-CP101-119),[2],< 1%
"CCC(CC(=O)O)C(=O)C(=O)O (stereo not shown) [compound 17, 3-ethyl-2OG]",IC50,[1]; [3],~1.2 µM and 1.2 µM
same,IC50,[1]; [5],22.4 ± 3.2 µM
same,IC50,[1]; [6],35.3 ± 9.9 µM
same,IC50,[1]; [7],54.9 ± 10.8 µM
same,AspH-catalyzed substrate conversion (hydroxylation of hFX-CP101-119),[2],< 1%
O=C(O)C(=O)c1ccc(C(=O)O)cc1F [compound 42],IC50 (inhibition of AspH),[1]; [4],Inactive
same,melting point,,> 310 °C (dec.)
same,AspH-catalyzed substrate conversion (hydroxylation of hFX-CP101-119),[2],~45%
O=C(O)C(=O)[C@@H]1[C@@H](C(=O)O)[C@@H]2C=C[C@H]1C2 (racemic) [compound 36],IC50,[1]; [3],~19.3 µM and 19.3 µM
same,AspH-catalyzed substrate conversion (hydroxylation of hFX-CP101-119),[2],< 1%
CCC(CC(=O)C(=O)O)C(=O)O (stereo not shown) [compound 27],IC50,[1]; [3],0.61 ± 0.09 µM
same,AspH-catalyzed substrate conversion (hydroxylation of hFX-CP101-119),[2],< 1%
